# From paper PMC10147690, “Human TRPV1 structure and inhibition by the analgesic SB-366791” (Nature Communications, 2023)
# Several values for one entry are separate records, joined by “and”; a condition that tells them apart may be missing. Equal entries are not always repeated. Where two headings read alike, the source gives them in different places.
# B1: human TRPV1 (natural protein, UniProt Q8NER1 1-839, looked up)
# chain: MKKWSSTDLGAAADPLQKDTCPDPLDGDPNSRPPPAKPQLSTAKSRTRLFGKGDSEEAFPVDCPHEEGELDSCPTITVSPVITIQRPGDGPTGARLLSQDSVAASTEKTLRLYDRRSIFEAVAQNNCQDLESLLLFLQKSKKHLTDNEFKDPETGKTCLLKAMLNLHDGQNTTIPLLLEIARQTDSLKELVNASYTDSYYKGQTALHIAIERRNMALVTLLVENGADVQAAAHGDFFKKTKGRPGFYFGELPLSLAACTNQLGIVKFLLQNSWQTADISARDSVGNTVLHALVEVADNTADNTKFVTSMYNEILMLGAKLHPTLKLEELTNKKGMTPLALAAGTGKIGVLAYILQREIQEPECRHLSRKFTEWAYGPVHSSLYDLSCIDTCEKNSVLEVIAYSSSETPNRHDMLLVEPLNRLLQDKWDRFVKRIFYFNFLVYCLYMIIFTMAAYYRPVDGLPPFKMEKTGDYFRVTGEILSVLGGVYFFFRGIQYFLQRRPSMKTLFVDSYSEMLFFLQSLFMLATVVLYFSHLKEYVASMVFSLALGWTNMLYYTRGFQQMGIYAVMIEKMILRDLCRFMFVYIVFLFGFSTAVVTLIEDGKNDSLPSESTSHRWRGPACRPPDSSYNSLYSTCLELFKFTIGMGDLEFTENYDFKAVFIILLLAYVILTYILLLNMLIALMGETVNKIAQESKNIWKLQRAITILDTEKSFLKCMRKAFRSGKLLQVGYTPDGKDDYRWCFRVDEVNWTTWNTNVGIINEDPGNCEGVKRTLSFSLRSSRVSGRHWKNFALVPLLREASARDRQSAQPEEVYLRQFSGSLKPEDAEVFKSPAASGEK
# notes: human TRPV1, wild-type full-length construct; residues 1-839 by the printed numbers (models hold 115-769 or 199-754); the tags of the construct are not described; Homotetramer; Apo samples in cNW11 nanodiscs, the SB-366791 sample in GDN detergent; also called hTRPV1; hTRPV1Apo; source: HEK 293S GnTI- cells transduced with baculovirus, purified (strep resin, SEC)
# What was measured:
# [1] = target: T1, hTRPV1 Y511A (Homo sapiens, UniProt Q8NER1, Y511A); assay: whole-cell patch-clamp, SB-366791 inhibition of pH 5-induced current, Y511A; type: cell-based; conditions: for I / Imax: individual cells
# T1 construct: expressed in transfected cells; host or cells: HEK293T ΔPIEZO1 cells, pIRES-EGFP plasmid
# [2] = target: T2, hTRPV1 L515A (Homo sapiens, UniProt Q8NER1, L515A); assay: whole-cell patch-clamp, SB-366791 inhibition of pH 5-induced current, L515A; type: cell-based; conditions: for I / Imax: +80 mV, individual cells
# T2 construct: we used the same wild-type full-length construct to determine the hTRPV1 structure; expressed in transfected cells; host or cells: HEK293T ΔPIEZO1 cells, pIRES-EGFP plasmid
# [3] = target: T3, hTRPV1 L547R (Homo sapiens, UniProt Q8NER1, L547R); assay: whole-cell patch-clamp, SB-366791 inhibition of pH 5-induced current, L547R; type: cell-based
# T3 construct: we used the same wild-type full-length construct to determine the hTRPV1 structure; expressed in transfected cells; host or cells: HEK293T ΔPIEZO1 cells, pIRES-EGFP plasmid
# [4] = target: T4, hTRPV1 T550A (Homo sapiens, UniProt Q8NER1, T550A); assay: whole-cell patch-clamp, SB-366791 inhibition of pH 5-induced current, T550A; type: cell-based
# T4 construct: we used the same wild-type full-length construct to determine the hTRPV1 structure; expressed in transfected cells; host or cells: HEK293T ΔPIEZO1 cells, pIRES-EGFP plasmid
# [5] = target: T5, hTRPV1 E693A (Homo sapiens, UniProt Q8NER1, E693A); assay: whole-cell patch-clamp, SB-366791 inhibition of pH 5-induced current, E693A; type: cell-based; conditions: for I / Imax: individual cells
# T5 construct: we used the same wild-type full-length construct to determine the hTRPV1 structure; expressed in transfected cells; host or cells: HEK293T ΔPIEZO1 cells, pIRES-EGFP plasmid
# [6] = target: T6, hTRPV1 R557A (Homo sapiens, UniProt Q8NER1, R557A); assay: whole-cell patch-clamp, SB-366791 on pH-induced current, R557A; type: cell-based; conditions: pH 5
# T6 construct: expressed in transfected cells; host or cells: HEK293 cells
# [7] = target: T7, hTRPV1 E570A (Homo sapiens, UniProt Q8NER1, E570A); assay: whole-cell patch-clamp, SB-366791 on pH-induced current, E570A; type: cell-based; conditions: pH 5
# T7 construct: expressed in transfected cells; host or cells: HEK293 cells
# [8] = test system: panel of 47 different targets, including G-protein-coupled receptors and voltage-gated calcium-channels; conditions: cited from earlier work
# [9] = test system: acute pain; conditions: co-administered with a calcium channel blocker; mice; cited from earlier work
# [10] = target: T8, hTRPV1 (Homo sapiens, UniProt Q8NER1); conditions: no apparent change in the maximal response; cited from earlier work
# [11] = test system: bone cancer pain; conditions: cited from earlier work
# [12] = test system: glutamatergic transmission in a subset of neurons; conditions: pre-synaptic TRPV1-dependent mechanism following peripheral inflammation; cited from earlier work
# [13] = test system: opiate-mediated behaviors; set-up: method as in PMID 27730727; conditions: rat studies; cited from earlier work
# [14] = target: T8, hTRPV1; assay: whole-cell patch-clamp at -40 mV, SB-366791 inhibition of capsaicin-activated hTRPV1 current and recovery; type: cell-based; set-up: we used the same wild-type full-length construct to determine the hTRPV1 structure; expressed in transfected cells; host or cells: HEK293T ΔPIEZO1 cells, pIRES-EGFP plasmid; I (Cap), hTRPV1 peak current amplitude / I (SB), hTRPV1 peak current amplitude: unit not given here
# [15] = target: T8, hTRPV1; assay: whole-cell patch-clamp, SB-366791 inhibition of pH 5-induced current, wild-type hTRPV1; type: cell-based; set-up: we used the same wild-type full-length construct to determine the hTRPV1 structure; expressed in transfected cells; host or cells: HEK293T ΔPIEZO1 cells, pIRES-EGFP plasmid
# [16] = target: T6, hTRPV1 R557A; assay: whole-cell patch-clamp, capsaicin on hTRPV1 R557A; type: cell-based; conditions: 10 μM capsaicin
# [17] = target: T7, hTRPV1 E570A; assay: whole-cell patch-clamp, capsaicin on hTRPV1 E570A; type: cell-based; conditions: 10 μM capsaicin
# [18] = target: T1, hTRPV1 Y511A; assay: whole-cell patch-clamp, capsaicin on hTRPV1 Y511A; type: cell-based; conditions: not shown
# [19] = test system: rat TRPV1; set-up: method as in PMID 27638213; conditions: cited from earlier work
# [20] = test system: mouse TRPV1; set-up: method as in PMID 27638213; conditions: cited from earlier work
# [21] = test system: squirrel TRPV1; set-up: method as in PMID 27638213; conditions: cited from earlier work
# [22] = test system: rat TRPV1 Y511A; conditions: cited from earlier work
# [23] = target: the molecule itself; assay: cryo-EM structure; apo hTRPV1 in cNW11 nanodiscs with soybean lipids or POPC:POPE:POPG (3:1:1); 150 mM NaCl, 20 mM Tris pH 8.0, 1 mM bME
molecule,measurement,setting,value
"COc1cccc(NC(=O)/C=C/c2ccc(Cl)cc2)c1 [SB-366791, N-(3-methoxyphenyl)−4-chlorocinnamide]",IC50,"[1]; +80 mV, mean ± SEM, n = 7",253 ± 75 nM
same,I / Imax,"[1]; SB-366791 0.0001 μM, +80 mV",0.951 and 0.974 and 0.889 and 1.022
same,I / Imax,"[1]; SB-366791 0.001 μM, +80 mV",0.916 and 0.924 and 0.887 and 0.985
same,I / Imax,"[1]; SB-366791 0.01 μM, +80 mV",0.893 and 0.810 and 0.838 and 0.939
same,I / Imax,"[1]; SB-366791 0.1 μM, +80 mV",0.831 (2×) and 0.718 (2×)
same,I / Imax,"[1]; SB-366791 1 μM, +80 mV",0.638 and 0.474 and 0.443 and 0.511
same,I / Imax,"[1]; SB-366791 10 μM, +80 mV",0.537 and 0.399 and 0.380 and 0.562
same,proportion of blocker-resistant current,"[1]; mean ± SEM, n = 7",0.490 ± 0.070
same,sensitivity to inhibition by the blocker,[2],completely insensitive
same,I / Imax,[2]; SB-366791 0.0001 μM,1.151 and 1.003 and 0.775 and 1.067
same,I / Imax,[2]; SB-366791 0.001 μM,0.856 and 0.881 and 0.592 and 0.984
same,I / Imax,[2]; SB-366791 0.01 μM,0.762 and 0.808 and 0.507 and 0.880
same,I / Imax,[2]; SB-366791 0.1 μM,0.817 and 0.939 and 0.604 and 0.943
same,I / Imax,[2]; SB-366791 1 μM,0.888 and 1.233 and 0.959 and 1.206
same,I / Imax,[2]; SB-366791 10 μM,0.734 and 1.125 and 1.046 and 1.211
same,sensitivity to inhibition by the blocker,[3],completely insensitive
same,sensitivity to inhibition by the blocker,[4],completely insensitive
same,I / Imax,"[5]; SB-366791 0.0001 μM, pH 5, +80 mV",0.860 (2×) and 0.830 and 0.980 and 0.850 and 0.890
same,I / Imax,"[5]; SB-366791 0.01 μM, pH 5, +80 mV",0.820 and 0.780 and 0.880 and 0.830
same,IC50,"[5]; pH 5, +80 mV, mean ± SEM, n = 6, read-out: IC50 of SB-366791",100 ± 11 nM
same,IC50,"[5]; pH 5, Hill fits of individual cells, read-out: SB-366791 IC50",121 nM and 70 nM and 137 nM and 75 nM and 92 nM and 103 nM
same,SB-366791-resistant fraction,"[5]; pH 5, individual cells",0.417 and 0.362 and 0.602 and 0.396 and 0.427 and 0.420
same,fraction of blocker-insensitive current,"[5]; pH 5, mean ± SEM, n = 6",0.440 ± 0.034
same,IC50,"[5]; response to reviewers, read-out: inhibition by SB-366791, IC50",100 nM
same,inhibition of current induced by changes in pH,[6],did not induce any inhibition
same,inhibition of current induced by changes in pH,[7],did not induce any inhibition
same,effect on a panel of 47 different targets,[8],little or no effect
same,synergistic increase of antinociceptive effect,[9],15 fold
same,effect on capsaicin concentration dependence of hTRPV1-mediated calcium uptake,[10],rightward shift
same,effect on analgesia by systemic morphine,[11],effectively potentiate the analgesic effects of systemic morphine
same,effect on glutamatergic transmission,[12],inhibiting glutamatergic transmission
same,effect on opiate-mediated behaviors,[13],impair opiate-mediated behaviors
same,inhibition of capsaicin-activated hTRPV1,"[14]; 10 µM SB-366791 co-applied with 1 µM capsaicin, -40 mV",complete inhibition
same,"I (SB), hTRPV1 peak current amplitude","[14]; Fig 2b, 10 µM SB-366791 in the presence of 1 µM capsaicin, 10 s after SB-366791 application, individual cells, listed as SB",0.010 and 0.020 and 0.060 and 0.011
same,IC50,"[15]; WT, pH 5, Hill fits of individual cells, read-out: SB-366791 IC50",5.41 nM and 45 nM and 38 nM and 6.46 nM and 26 nM and 13 nM and 15 nM
same,SB-366791-resistant fraction,"[15]; WT, pH 5, individual cells",0.177 and 0.291 and 0.285 and 0.295 and 0.181 and 0.106 and 0.205
same,IC50,"[15]; WT, response to reviewers, read-out: inhibition by SB-366791, IC50",21 nM
same,IC50,"[15]; wild-type, pH 5, +80 mV, mean ± SEM, n = 7, read-out: IC50 of SB-366791",21 ± 6 nM
same,proportion of blocker-resistant current,"[15]; wild-type, pH 5, mean ± SEM, n = 7",0.220 ± 0.027 and 0.22 ± 0.03
COc1cc(CNC(=O)CCCC/C=C/C(C)C)ccc1O [capsaicin],currents induced by capsaicin,[16],did not induce any currents
same,currents induced by capsaicin,[17],did not induce any currents
same,sensitivity to capsaicin,[18],insensitive
same,EC50,[19],527 ± 53 nM
same,EC50,[20],776 ± 52 nM
same,EC50,[21],529 ± 32 nM
same,sensitivity to capsaicin,[22],insensitive
same,"I (Cap), hTRPV1 peak current amplitude","[14]; Fig 2b, 1 µM capsaicin, -40 mV, individual cells, listed as Cap",0.380 and 0.430 and 4.800 and 2.000 and 1.600
B1,stoichiometry N,[23],4
